Data: ChEMBL document CHEMBL3414511, “Synthesis of a novel class of substituted benzothiophene or benzofuran derivatives as BMP-2 up-regulators and evaluation of the BMP-2-up-regulating effects in vitro and the effects on glucocorticoid-induced osteoporosis in rats” (Eur J Med Chem, 2015)
Active and inactive are the calls of the source. No cut-off for these calls is given here.

Columns and labels:
[1] = system: Rattus norvegicus; assay: Antiosteoporotic activity in glucocorticoid-induced Wistar rat osteoporosis model assessed as increase in trabecula connectivity at 30 mg/kg/day, po administered six times a week for 3 months by toluidine blue staining-based light microscopic analysis relative to dexamethasone; type: functional, organism-based
[2] = system: Rattus norvegicus; assay: Antiosteoporotic activity in glucocorticoid-induced Wistar rat osteoporosis model assessed as trabecula resorption surface at 30 mg/kg/day, po administered six times a week for 3 months by fluorescence assay (reference value: 7.22 +/- 2.04%); type: functional
[3] = system: Rattus norvegicus; assay: Toxicity in glucocorticoid-induced Wistar rat osteoporosis model assessed as effect on red blood cell specific volume at 30 mg/kg/day, po administered six times a week for 3 months; type: organism-based; parameters: route oral; conditions: in vivo
[4] = system: Rattus norvegicus; assay: Toxicity in glucocorticoid-induced Wistar rat osteoporosis model assessed as aspartate transaminase level at 30 mg/kg/day, po administered six times a week for 3 months (reference value: 177.55 +/- 116.98 U/L); type: organism-based; parameters: route oral; conditions: in vivo
[5] = system: Rattus norvegicus; assay: Toxicity in glucocorticoid-induced Wistar rat osteoporosis model assessed as effect on hemoglobin at 30 mg/kg/day, po administered six times a week for 3 months; type: organism-based; parameters: route oral; conditions: in vivo
[6] = system: Rattus norvegicus; assay: Toxicity in glucocorticoid-induced Wistar rat osteoporosis model assessed as alanine transaminase level at 30 mg/kg/day, po administered six times a week for 3 months (reference value: 43.73 +/- 36.21 U/L); type: organism-based; parameters: route oral; conditions: in vivo
[7] = system: Rattus norvegicus; assay: Antiosteoporotic activity in glucocorticoid-induced Wistar rat osteoporosis model assessed as increase in trabecula number at 30 mg/kg/day, po administered six times a week for 3 months by toluidine blue staining-based light microscopic analysis relative to dexamethasone; type: functional, organism-based
[8] = system: Rattus norvegicus; assay: Toxicity in glucocorticoid-induced Wistar rat osteoporosis model assessed as effect on blood urea nitrogen level at 30 mg/kg/day, po administered six times a week for 3 months; type: organism-based; parameters: route oral; conditions: in vivo
[9] = system: Rattus norvegicus; assay: Toxicity in glucocorticoid-induced Wistar rat osteoporosis model assessed as effect on albumin level at 30 mg/kg/day, po administered six times a week for 3 months; type: organism-based; parameters: route oral; conditions: in vivo
[10] = system: Rattus norvegicus; assay: Toxicity in glucocorticoid-induced Wistar rat osteoporosis model assessed as effect on red blood cell distribution width at 30 mg/kg/day, po administered six times a week for 3 months; type: organism-based; parameters: route oral; conditions: in vivo
[11] = system: Rattus norvegicus; assay: Antiosteoporotic activity in glucocorticoid-induced Wistar rat osteoporosis model assessed as trabecular bone volume at 30 mg/kg/day, po administered six times a week for 3 months by fluorescence assay (reference value: 33.09 +/- 5.15%); type: functional, Trabecula
[12] = system: Rattus norvegicus; assay: Toxicity in glucocorticoid-induced Wistar rat osteoporosis model assessed as effect on total bilirubin level at 30 mg/kg/day, po administered six times a week for 3 months; type: organism-based; parameters: route oral; conditions: in vivo
[13] = system: Rattus norvegicus; assay: Toxicity in glucocorticoid-induced Wistar rat osteoporosis model assessed as effect on mean corpuscular hemoglobin concentration at 30 mg/kg/day, po administered six times a week for 3 months; type: organism-based; parameters: route oral; conditions: in vivo
[14] = system: Rattus norvegicus; assay: Toxicity in glucocorticoid-induced Wistar rat osteoporosis model assessed as effect on total protein level at 30 mg/kg/day, po administered six times a week for 3 months; type: organism-based; parameters: route oral; conditions: in vivo
[15] = system: Rattus norvegicus; assay: Toxicity in glucocorticoid-induced Wistar rat osteoporosis model assessed as lymph level at 30 mg/kg/day, po administered six times a week for 3 months (reference value: 50.35 +/- 12.96%); type: organism-based; parameters: route oral; conditions: in vivo
[16] = system: Rattus norvegicus; assay: Toxicity in glucocorticoid-induced Wistar rat osteoporosis model assessed as effect on red blood cells at 30 mg/kg/day, po administered six times a week for 3 months; type: organism-based; parameters: route oral; conditions: in vivo
[17] = system: Rattus norvegicus; assay: Antiosteoporotic activity in glucocorticoid-induced Wistar rat osteoporosis model assessed as mineral apposition rate at 30 mg/kg/day, po administered six times a week for 3 months by fluorescence assay (reference value: 1.06 +/- 0.27 micrometer/day); type: functional
[18] = system: Rattus norvegicus; assay: Toxicity in glucocorticoid-induced Wistar rat osteoporosis model assessed as effect on creatinine level at 30 mg/kg/day, po administered six times a week for 3 months; type: organism-based; parameters: route oral; conditions: in vivo
[19] = Acute toxicity in po dosed Kunming mouse administered for 3 days measured during compound dosing and following 14 days; type: organism-based; conditions: in vivo
[20] = system: Rattus norvegicus; assay: Toxicity in glucocorticoid-induced Wistar rat osteoporosis model assessed as effect on glucose level at 30 mg/kg/day, po administered six times a week for 3 months; type: organism-based; parameters: route oral; conditions: in vivo
[21] = system: Mus musculus; assay: Acute toxicity in Kunming mouse assessed as shiny fur at 700 mg/kg, po administered for 3 days measured during compound dosing and following 14 days; type: organism-based; parameters: dose 700 mg/kg, route oral; conditions: in vivo, 336 h
[22] = system: Rattus norvegicus; assay: Toxicity in glucocorticoid-induced Wistar rat osteoporosis model assessed as triglycerides level at 30 mg/kg/day, po administered six times a week for 3 months (reference value: 1.13 +/- 0.69 mmol/L); type: organism-based; parameters: route oral; conditions: in vivo
[23] = system: Rattus norvegicus; assay: Antiosteoporotic activity in glucocorticoid-induced Wistar rat osteoporosis model assessed as increase in trabecula area at 30 mg/kg/day, po administered six times a week for 3 months by toluidine blue staining-based light microscopic analysis relative to dexamethasone; type: functional, organism-based
[24] = Upregulation of BMP-2 expression in mouse MC3T3-E1 cells at 4 uM after 24 hrs by luciferase reporter gene assay relative to control; type: functional, cell-based
[25] = system: Rattus norvegicus; assay: Antiosteoporotic activity in glucocorticoid-induced Wistar rat osteoporosis model assessed as increase in trabecula thickness at 30 mg/kg/day, po administered six times a week for 3 months by toluidine blue staining-based light microscopic analysis relative to dexamethasone; type: functional, organism-based
[26] = system: Rattus norvegicus; assay: Toxicity in glucocorticoid-induced Wistar rat osteoporosis model assessed as effect on mean corpuscular volume at 30 mg/kg/day, po administered six times a week for 3 months; type: organism-based; parameters: route oral; conditions: in vivo
[27] = system: Rattus norvegicus; assay: Antiosteoporotic activity in glucocorticoid-induced Wistar rat osteoporosis model assessed as trabecula formation surface at 30 mg/kg/day, po administered six times a week for 3 months by fluorescence assay (reference value: 7.82 +/- 2.46%); type: functional
[28] = system: Rattus norvegicus; assay: Toxicity in glucocorticoid-induced Wistar rat osteoporosis model assessed as effect on platelets at 30 mg/kg/day, po administered six times a week for 3 months; type: organism-based; parameters: route oral; conditions: in vivo
[29] = system: Rattus norvegicus; assay: Toxicity in glucocorticoid-induced Wistar rat osteoporosis model assessed as neutrophilic granulocytes level at 30 mg/kg/day, po administered six times a week for 3 months (reference value: 31.95 +/- 8.33%); type: organism-based; parameters: route oral; conditions: in vivo
[30] = system: Rattus norvegicus; assay: Toxicity in glucocorticoid-induced Wistar rat osteoporosis model assessed as white blood cells at 30 mg/kg/day, po administered six times a week for 3 months (reference value: 6.28 +/- 2.78 x 10^9/L); type: organism-based; parameters: route oral; conditions: in vivo
[31] = system: Mus musculus; assay: Acute toxicity in Kunming mouse assessed as behavioral changes at 700 mg/kg, po administered for 3 days measured during compound dosing and following 14 days; type: organism-based; parameters: dose 700 mg/kg, route oral; conditions: in vivo, 336 h
[32] = Upregulation of BMP-2 expression in mouse MC3T3-E1 cells at 0.4 uM after 24 hrs by luciferase reporter gene assay relative to control; type: functional, cell-based

With CCOC(=O)c1cc2ccc(C(=O)OC)cc2s1 the Activity [1] was “Active”, the Activity [2] was 8.92% and the Activity [3] was “Non-toxic”. For the same compound, the Activity [4] was 124.42 U/L, the Activity [5] was “Non-toxic” and the Activity [6] was 26.25 U/L. For the same compound, the Activity [7] was “Active”, the Activity [8] was “Non-toxic” and the Activity [9] was “Non-toxic”. For the same compound, the Activity [10] was “Non-toxic”, the Activity [11] was 28.61% and the Activity [12] was “Non-toxic”. The Activity [13] was “Non-toxic”, the Activity [14] was “Non-toxic” and the Activity [15] was 46.39%. The Activity [16] was “Non-toxic”, the Activity [17] was 1.13 micrometer/day and the Activity [18] was “Non-toxic”. For the same compound, the LD50 at 336 h [19] was greater than 700 mg/kg, the Activity [20] was “Non-toxic” and the Activity [21] was “Non-toxic”. For the same compound, the Activity [22] was 0.36 mmol/L, the Activity [23] was “Active” and the Activity [24] was 123%. The Activity [25] was “Active”, the Activity [26] was “Non-toxic” and the Activity [27] was 6.69%. For the same compound, the Activity [28] was “Non-toxic”, the Activity [29] was 40.03% and the Activity [30] was 3.03 ×10⁹ /L. For the same compound, the Activity [31] was “Non-toxic”.
Work on CC[C@H](C)C(=O)O[C@H]1C[C@@H](C)C=C2C=C[C@H](C)[C@H](CC[C@@H]3C[C@@H](O)CC(=O)O3)[C@H]21 yielded an Activity [32] of 20.9%.
